Test [1] has as its system resistant Escherichia coli. Kind of test: MIC alone and in combination against 30 strains of resistant Escherichia coli. Type of test: cell-based. Here is the method: The manner in which the compounds of the formula I increase the effectiveness of the compound of formula XXII and the pharmaceutically-acceptable salts thereof can be appreciated by reference to experiments in which the MIC of the compound of the formula XXII alone, and the compound of the formula I wherein R^1 is hydrogen alone, are measured. These MIC's are then compared with the MIC values obtained with a combination of the compound of formula XXII and the compound of the formula I, wherein R^1 is hydrogen. […] The MIC values of combinations are measured using the method described by Barry and Sabath in "Manual of Clinical Microbiology", edited by Lenette, Spaulding and Truant, 2nd edition, 1974, American Society of Microbiology.
The minimum inhibitory concentrations (MIC's) of penicillanic acid 1,1-dioxide (PA 1,1-dioxide) alone and 7-(D-2-[4-ethylpiperazine-2,3-dione-1-carboxamido]-2-[4-hydroxyphenyl]acetamido)-3-([1-methyl-5-tetrazolyl]thiomethyl)-3-desacetoxymethylcephalosporanic acid (T-1551) alone, against 30 strains of resistant Escherichia coli, were measured. These MIC's were then compared with the MIC values obtained with a combination of the two compounds. The results were as follows:
The MIC's were measured using the method recommended by the International Collaborative Study on Antibiotic Sensitivity Testing (Ericcson and Sherris, Acta. Pathologica et Microbiologica Scandivav, Supp. 217, Section B, 64-68 [1971]), which employed brain heart infusion agar and the inocular replicating device. Overnight growth tubes were diluted 10-fold for use as the standard inoculum. Twelve two-fold dilutions of the test compound were employed with initial concentration of the test drug being 200 mcg/ml. Single colonies were disregarded when reading plates after 18 hours at 37° C. […] The MIC's of combinations were measured using the method described by Barry and Sabath in "Manual of Clinical Microbiology", edited by Lenette, Spaulding and Truant, 2nd edition, 1974, American Society for Microbiology.

Test [2] relates to microbial beta-lactamases. The experiment in a line: Inhibition of microbial beta-lactamases. Type of test: biochemical. Particulars: result in words.

Take `CCN1CCN(C(=O)N[C@@H](C(=O)N[C@@H]2C(=O)N3C(C(=O)O)=C(CSc4nnnn4C)CS[C@H]23)c2ccc(O)cc2)C(=O)C1=O` [Example T-1551, 7-(D-2-[4-ethylpiperazine-2,3-dione-1-carboxamido]-2-[4-hydroxyphenyl]acetamido)-3-([1-methyl-5-tetrazolyl]thiomethyl)-3-desacetoxymethylcephalosporanic acid]: the MIC in test [1] (alone, BHI agar, 18 hours at 37° C., read-out: Mode MIC of T-1551 alone) worked out at 100 µg/mL. Also, the “Mode MIC's of T-1551 & PA 1,1-Dioxide in Combination: T-1551” value in test [1] (in combination with PA 1,1-Dioxide (1.56)) stood at 1.56.

With `CC1(C)[C@H](C(=O)O)N2C(=O)C[C@H]2S1(=O)=O` [Penicillanic Acid 1,1-Dioxide], the “inhibition of microbial beta-lactamases” value in test [2] is recorded as “potent inhibitors of microbial beta-lactamases”. Moreover, the “Mode MIC's of T-1551 & PA 1,1-Dioxide in Combination: PA 1,1-Dioxide” value in test [1] (in combination with T-1551 (1.56)) stood at 1.56.
